Source: patent US20050031597A1, “Cells and improved method for preserving cells” (priority 2003, published 2005)

System: erythrocytic cells
Test: Hemolysis / survival of freeze-dried and rehydrated erythrocytic cells

Compound	hemolysis after freeze-drying and rehydration (FIG. 22 [T+αC]+5 min+Zn: α-crystallin 1.2 mg/ml loading, 5 min pre-hydration, 500 μM ZnSO4 in rehydration buffer) [%]	cell survival (α-crystallin, 5 min pre-hydration and 500 μM ZnSO4 combined) [%]	cell survival after rehydration (1.2 mg/ml α-crystallin in loading plus 0.5 mg/ml α-crystallin in rehydration buffer)	hemolysis after freeze-drying and rehydration (FIG. 22 [T+αC]+5 min: α-crystallin 1.2 mg/ml in loading buffer, pre-hydrated 37° C. 5 min) [%]	percent hemolysis after freeze-drying and direct rehydration (loaded in 800 mM trehalose, 100 mOsm ADSOL, 6.6 mM Na-phosphate and 1.2 mg/ml α-crystallin (FIG. 21)) [%]
O=S(=O)([O-])[O-].[Zn+2] [ZnSO4]	38	62	–	–	–
α-crystallin: member of the small heat shock protein family	–	–	does not result in higher cell survival	47	49
